In brackets after ≈: the same amount, converted by molar mass.

The record followed here is ChEMBL document CHEMBL4177627, “Discovery and evaluation of Cav3.1-selective T-type calcium channel blockers” (Bioorg Med Chem Lett, 2017).

Data set [1] can be described thus: Solubility of the compound in aqueous medium at pH 7. It counts as physicochemical.
A short description of data set [2]: Drug level in Wistar rat brain at 100 mg/kg, po measured after 1 hr. It counts as ADME, organism-based. To be noted: read-out: Drug uptake.
Data set [3] in a line: Intrinsic clearance in rat liver microsomes assessed per mg protein. The class given is ADME, microsome. Particulars: read-out: CLH.
Data set [4] is described as follows: Unbound plasma concentration in Wistar rat at 100 mg/kg, po measured after 1 hr. The class given is ADME, organism-based. Particulars: in vivo.
Data set [5] in a line: Plasma concentration in Wistar rat at 100 mg/kg, po measured after 1 hr. It counts as ADME, organism-based.

With `CCN(CC)CCc1c(C(=O)NCc2ccccc2OCC(F)(F)F)nn(-c2ccccc2)c1-c1ccccc1`, the solubility entry in data set [1] (buffer) is “Soluble”.

For the molecule `O=C(NCc1ccccc1OCC(F)(F)F)c1nn(-c2ccccc2)c(-c2ccccc2)c1CCNC1CC1`, the solubility entry in data set [1] (buffer) is “Soluble”.

As for `CCNCCc1c(C(=O)NCc2ccccc2OCC(F)(F)F)nn(-c2ccccc2)c1-c1ccccc1`, the figures for the concentration at 1 h in data set [2] and in data set [5] were 80 nM and 810 nM, respectively. For the same molecule, the microsomal CLint in data set [3] was found to be 377 µL/min/mg. Moreover, the “Cp(f)” value in data set [4] came to 4.9 nM. For the same molecule, the solubility in data set [1] (aqueous medium, read-out: solubility) amounted to 429 µg/mL (≈ 821 µM).
